Data on ten compounds can be found in ChEMBL document CHEMBL1151338, “Alkaloids of Thalictrum XXX. Eleven Minor Alkaloids From Thalictrum rugosum” (1980).

Active and inactive are the calls of the source. The calls are words filed in the database; no cut-off is given here.

Assay [1] concerns Mycolicibacterium smegmatis. As to the kind of experiment: Antimicrobial activity against Mycobacterium smegmatis ATCC 607. In kind it is functional.
Assay [2] relates to Klebsiella pneumoniae. The assay can be described thus: Antimicrobial activity against Klebsiella pneumoniae ATCC 10031 at 1000 ug/ml. The format is functional, organism-based.
Assay [3] has as its system Candida albicans. As to the kind of experiment: Antimicrobial activity against Candida albicans ATCC 10231. The format is functional.
Assay [4] has as its system Staphylococcus aureus. As to the kind of experiment: Antimicrobial activity against Staphylococcus aureus ATCC 13709a. In kind it is functional.
The subject of assay [5] is Escherichia coli. As to the kind of experiment: Antimicrobial activity against Escherichia coli ATCC 9637 at 1000 ug/ml. In kind it is functional, organism-based.
Assay [6] deals with Salmonella enterica subsp. enterica serovar Gallinarum. As to the kind of experiment: Antimicrobial activity against Salmonella gallinarum ATCC 9184 at 1000 ug/ml. In kind it is functional, organism-based.
Assay [7] has as its system Candida albicans. As to the kind of experiment: Antimicrobial activity against Candida albicans ATCC 10231 at 1000 ug/ml. In kind it is functional, organism-based.
Assay [8] deals with Klebsiella pneumoniae. The assay can be described thus: Antimicrobial activity against Klebsiella pneumoniae ATCC 10031. The format is functional.
For assay [9], the system named is Salmonella enterica subsp. enterica serovar Gallinarum. As to the kind of experiment: Antimicrobial activity against Salmonella gallinarum ATCC 9184. In kind it is functional.
Assay [10] deals with Escherichia coli. As to the kind of experiment: Antimicrobial activity against Escherichia coli ATCC 9637. In kind it is functional.
Assay [11] relates to Mycolicibacterium smegmatis. As to the kind of experiment: Antimicrobial activity against Mycobacterium smegmatis ATCC 607 at 1000 ug/ml. In kind it is functional, organism-based.
Assay [12] relates to Staphylococcus aureus. As to the kind of experiment: Antimicrobial activity against Staphylococcus aureus ATCC 13709a at 1000 ug/ml. The format is functional, organism-based.

As to `COc1cc2c3c(c1O)Oc1c4c(cc(OC)c1OC)[C@H](Cc1ccc(cc1)Oc1cc(ccc1O)C[C@@H]3N(C)CC2)N(C)CC4` [THALIGOSIDINE], the Activity came out at 100 µg/mL in [1], 1000 µg/mL in assay [3] and 1000 µg/mL in assay [4]. For the same compound, the result in [2], in assay [5] and in assay [6] was inactive.
With `CN[C@@H]1[C@H](O[C@H]2[C@H](O[C@H]3[C@H](O)[C@@H](O)[C@H](N=C(N)N)[C@@H](O)[C@@H]3N=C(N)N)O[C@@H](C)[C@]2(O)C=O)O[C@@H](CO)[C@H](O)[C@H]1O` [STREPTOMYCIN], the Activity turned out to be 0.78 µg/mL in [1]; 1.56 µg/mL in assay [8]; 3.1 µg/mL in assay [4]; 25 µg/mL in [9]; 12.5 µg/mL in assay [10]. Also, in assay [7], the outcome was inactive.
Consider `COc1ccc(C[C@H]2c3cc(OC)c(OC)c(O)c3CCN2C)cc1Oc1ccc(C[C@H]2c3cc(OC)c(OC)c(O)c3CCN2C)cc1` [THALIRUGIDINE], for which the Activity in assay [1] and in assay [4] was 1000 µg/mL in each case. Also, the result in [7], in assay [2], in [5] and in [6] was inactive.
On to `COc1cc2c3cc1Oc1c(OC)c(OC)c(OC)c4c1[C@H](Cc1ccc(cc1)Oc1cc(ccc1O)C[C@@H]3N(C)CC2)N(C)CC4` [THALIGOSININE], for which the Activity in assay [1], in [8] and in [4] was 1000 µg/mL in each case. The result in [7], in assay [2], in [5] and in [6] was inactive.
Turning to `COc1cc2c(cc1O)[C@H](Cc1ccc(OC)c(Oc3ccc(C[C@H]4c5cc(OC)c(OC)c(O)c5CCN4C)cc3)c1)N(C)CC2` [THALIRUGINE], the Activity in [1] and in assay [4] was 1000 µg/mL throughout. Also, the result in [7], in assay [2], in [5] and in [6] was inactive.
Turning to `COc1cc(CCN(C)C)c2ccc3cc4c(cc3c2c1OC)OCO4` [THALICTHUBERINEC], the Activity in assay [1] amounted to 25 µg/mL; in assay [8] it was 1000 µg/mL; in [3], 50 µg/mL; in [4], 100 µg/mL; in assay [9] it was 1000 µg/mL. Moreover, the result in assay [5] was inactive.
Consider `COc1cc2c(cc1O)[C@H](Cc1ccc(OC)c(Oc3ccc(C[C@H]4c5cc(OC)c(OC)cc5CCN4C)cc3)c1)N(C)CC2` [NEOTHALIBRINE], for which the Activity in assay [1] and in [4] was 1000 µg/mL throughout. Further, the result in assay [7], in assay [2], in assay [5] and in assay [6] was inactive.
Turning to `CCOc1c2c3c(c(OC)c1OC)Oc1cc4c(cc1OC)CCN(C)[C@H]4Cc1ccc(OC)c(c1)Oc1ccc(cc1)C[C@@H]3N(C)CC2` [THALIGOSINE ETHYL ETHER], the Activity in assay [1] is 100 µg/mL; in assay [8], 1000 µg/mL; in [3] it was 100 µg/mL; in [4], 100 µg/mL. Also, the result in assay [5] and in [6] was inactive.
`COc1ccc2cc1Oc1ccc(cc1)C[C@H]1c3c(c(O)c(OC)c(OC)c3Oc3cc4c(cc3OC)CCN(C)[C@H]4C2)CCN1C` [THALIGOSINE]: the Activity stood at 100 µg/mL in assay [1], 1000 µg/mL in assay [3] and 100 µg/mL in assay [4]. For the same compound, the outcome in assay [5] and in assay [6] was inactive.
Turning to `O=C1NCCc2cc3c(cc21)OCO3`, the result in assay [11], in [7], in assay [2], in assay [12], in assay [5] and in [6] was inactive.
